Laboratory results: US20040266732A1, “Therapeutic agents, methods, and treatments” (priority 2002, published 2004)

Key:
[1] = system: NCI-H226 squamous carcinoma; experiment: Induced-tumor NOD/SCID mouse model, comparison to cisplatin (Example 8); type: in vivo, NOD/SCID mice
Description: (§1) A standard induced-tumor NOD/SCID mouse model was used to perform this investigation, with the mouse model being based on protocols for human xenograft systems developed at the National Cancer Institute. H226 cell cancer tumors were induced in NOD/SCID mice; tumors at sizes approximately 100 mm^3 were treated with 30 mg/kg MT103 or a control containing only vehicle (2.5% DMSO in distilled water) administered in intraperitoneal injections every other day for two weeks.
This experiment provides in vivo test data showing that the MT103 family of compounds are effective anti-cancer agents. […] MT103 was tested at three dose levels (60, 120, and 240 mg/kg). Experiments were performed as described in Example 7, NOD/SCID mice, (NOD.CB17-Prkdcscid/J) except that tumors were treated with: one of three doses of MT103 or Cisplatin or sham for 3 intraperitoneal injections (one every 4 days) in a 2-cycle 56-day test that was extended to another cycle to 86 days, as reflected in FIG. 5. Tumor volumes were measured every other day.

H226 cell cancer tumors = experiment: Induced-tumor NOD/SCID mouse model (Example 7); type: in vivo, NOD/SCID mice; conditions: 30 mg/kg intraperitoneal every other day for two weeks
Description: as §1

A549 (an adenocarcinoma) = experiment: Induced-tumor NOD/SCID mouse model, A549; type: in vivo, NOD/SCID mice
Description: In another experiment, NOD/SCID mice, (NOD.CB17-Prkdcscid/J) were treated over a time course with 60 mg/kg of MT103 or a sham treatment, and a different lung cancer cell line was used, A549 (an adenocarcinoma), instead of NCI-H226 (a squamous carcinoma).

[2] = system: NCI-H226 human non-small cell lung cancer cell line; experiment: MTS assay; type: cell-based
Description: Methods The MTS assay was employed in the evaluation of these compounds. The cells were harvested, centrifuged to remove the medium, and suspended in fresh complete medium. Samples were taken to determine cell density. The cell count was determined with a Coulter Model Z cell counter and viability was measured with propidium iodine staining call by analysis on Coulter EPICS flow cytometer. The cell line was plated at 5×10^3 cells per well in complete medium. On the following day, the cells were closed with the dilutions of the compound. The plates were analyzed on Day for after initiation of treatment.
The cell line was propagated using standard tissue culture procedures and seeded in microtiter plates prior to dosing. Control groups included a mock treatment, media control, and a positive control (doxorubicin, 1 μM). For each concentration level, eight replicates were treated. The cell line was propagated under sterile conditions at 37° C. in 5% CO2 and 95% humidity. MT103 was stored at 4° C. until dissolved and diluted in complete medium.
Anti-cellular effects of the compound were assessed with the MTS dye conversion assay. MTS was purchased as a single solution, and stored at −20° C. […] The absorbance of formazan in each monolayer was measured at 490 nm on a Coulter microplate reader at four hours after addition of the MTS.

NCI-H226 = experiment: Anchorage-independent colony-forming assay; type: cell-based, human; conditions: for % Inhibition: colonies Day 14
Description: (§2) Testing was conducted employing standard tissue culture techniques and an anchorage-independent colony-forming assay.
(§3) MT103 was tested against the lung carcinoma cell lines NCI-H226, NCI-H522, and HOP-92. An anchorage-independent colony-forming assay was employed. For the experiment, the cells were harvested, centrifuged to remove the media, and suspended in Iscove's Modified Dulbecco's Medium (IMDM). Samples were taken to determine cell density. The cell count was determined with a Coulter Model Z1 cell counter and viability was measured with propidium iodide staining followed by analysis on a Coulter EPICS XL flow cytometer. Each cell line was plated at 1×10^5 cells per dish (35 mm) in IMDM with 20% FBS and 1% methylcellulose containing the appropriate concentration of test compound or DMSO control. Five concentrations of each compound and a DMSO control were tested in each of the three cell lines. The colonies per plate were counted on Day 14 after the initiation of treatment. The cell lines were propagated under sterile conditions and incubated at 37° C. in HEPA-filtered CO2 tissue culture incubators with 5% CO2 and 95% humidity. The cell line was subcultured weekly to bi-weekly and used in experiments. The test compounds were kept refrigerated under light protected conditions until dissolved in DMSO.
(§4) Anticellular effects of the compounds on the tumor line were assessed with a colony-forming assay. Briefly, cell were harvested and adjusted to 3×10^6 viable cells/mL in IMDM. Compounds (200×) were prepared in DMSO and serially diluted in DMSO to give appropriate testing concentrations. Cells (100 μL), compound or DMSO control (16.5 μL) and IMDM (183.5 μL) were added to the appropriate assay tubes (12×75 mm) containing 3 mL of complete media, IMDM with 20% FBS and 1% methylcellulose. Tubes were then vortexed and 1.1 mL of the cell suspension was added to each of two 35 mm dishes. These dishes were then incubated for 14 days in HEPA-filtered CO2 tissue culture incubators with 5% CO2 and 95% humidity. The colonies in each dish were then counted and the duplicates were averaged and reported

NCI-H522 = experiment: Anchorage-independent colony-forming assay; type: cell-based, human; conditions: for % Inhibition: colonies Day 14
Description: as §2, §3, §4

HOP-92 = experiment: Anchorage-independent colony-forming assay; type: cell-based, human; conditions: for % Inhibition: colonies Day 14
Description: as §2, §3, §4

SMILES: CC1(C)C2CC[C@@]1(CS(=O)(=O)N(C1CCCCC1)C1CCCCC1)C(O)C2 (stereo partly drawn) [MT103]
- blood counts and electrolytes ([1]; 120 mg/kg versus control): no differences in blood counts and electrolytes
- organ appearance ([1]; 120 mg/kg versus control): no observable differences in organ appearance
- improvement compared to cisplatin ([1]; 120 mg/kg, among the range of doses tested): most improvement compared to cisplatin
- mean tumor growth ([1]; 60, 120, 240 mg/kg, 3 intraperitoneal injections (one every 4 days) per cycle, p=0.046, FIG. 5): mean tumor growth slowed
- effect in comparison to cisplatin ([1]; depending upon the dosages administered (60, 120, 240 mg/kg)): comparable or superior effect
- toxicity (H226 cell cancer tumors): without any evidence of toxicity
- tumor volume (H226 cell cancer tumors; FIG. 3): tumor volume was significantly decreased
- mice body weight (H226 cell cancer tumors; FIG. 4): did not have deleterious effect on mice body weight
- H226 tumor progression (H226 cell cancer tumors; p=0.038): slowed down H226 tumor progression significantly
- onset of tumor growth (A549 (an adenocarcinoma); 60 mg/kg versus sham): delayed onset of tumor growth
- tumor size versus control (A549 (an adenocarcinoma); 60 mg/kg, t=30 days): significantly smaller than the control groups
- GI50 [2]: 66 µM
- IC50 (NCI-H226; NCI-H226, colony-forming assay): 8.39 µM
- % Inhibition (NCI-H226; NCI-H226, 0.8 μM): 3.1%
- % Inhibition (NCI-H226; NCI-H226, 4 μM): 36.7%
- % Inhibition (NCI-H226; NCI-H226, 20 μM): 65.6%
- % Inhibition (NCI-H226; NCI-H226, 100 μM): 92.2%
- % Inhibition (NCI-H226; NCI-H226, 500 μM): 99.7%
- −logGI50 value (NCI-H226; NCI-H226, see Table 5): 5.1
- IC50 (NCI-H522; NCI-H522, colony-forming assay): 81.7 µM
- % Inhibition (NCI-H522; NCI-H522, 0.8 μM): 0%
- % Inhibition (NCI-H522; NCI-H522, 4 μM): 0%
- % Inhibition (NCI-H522; NCI-H522, 20 μM): 0%
- % Inhibition (NCI-H522; NCI-H522, 100 μM): 57.2%
- % Inhibition (NCI-H522; NCI-H522, 500 μM): 100%
- −logGI50 value (NCI-H522; NCI-H522, see Table 5): 4.1
- IC50 (HOP-92; HOP-92, colony-forming assay): 24.2 µM
- % Inhibition (HOP-92; HOP-92, 0.8 μM): 0%
- % Inhibition (HOP-92; HOP-92, 4 μM): 0%
- % Inhibition (HOP-92; HOP-92, 20 μM): 43.3%
- % Inhibition (HOP-92; HOP-92, 100 μM): 100%
- % Inhibition (HOP-92; HOP-92, 500 μM): 100%
- −logGI50 value (HOP-92; HOP-92, see Table 5): 4.6
